Literature values in PMC10855781 (International Journal of Molecular Sciences, 2024).
Read-outs that look alike come from different tables or passages of the source.

Tests used:
[1] = tested on: human umbilical vein endothelial cells (HUVEC); set-up: key: 0: no cardiotoxicity; +: weak; ++: moderate; +++: strong cardiotoxicity; details: long-term (0–72 h) cytotoxic effect, impedimetric; ref [75]
From the text: Table 2 Comparative study of cytotoxic effects and cardiotoxicity elicited by selected GnRH-based anthracycline conjugates. | column: Cardiotoxicity

mice = tested on: mice
From the text: The most widely studied oxime-linked daunomycin–peptide conjugates were GnRH-III-based derivatives. GnRH-III (<[…]-NH2, where <E is pyroglutamic acid) was first isolated from sea lamprey and has a very low-level hormonal effect in mammals, but binds to both the human GnRH receptors (GnRH-IR and GnRH-IIR). […] Nevertheless, the results of the in vivo acute and chronic toxicity measureme ...

HT-29 tumor = details: ref [18]
Experimental: In our group, we synthesized conjugates based on a heptapeptide (VHLGYAT) selected by Zhang et al. and tested them on HT-29 human colon adenocarcinoma. Since sequence modification may result in different oxime-linked Dau-amino acid fragments, a cathepsin B- labile spacer was incorporated to the N-terminal of the homing peptide. From the parent compound (Dau=Aoa-LRRY-VHLGYAT-NH2), the potential positions that can be substituted were selected using Ala-scan. […] Statistical analysis was performed by Mann-Whitney test. *, ** and *** mean significant at p < 0.05, p < 0.01 and p < 0.001, respectively. Adapted with permission from ref. [18]. 2019, Elsevier. TEXT PRINTED IN THE PICTURE: (a) Dau: Tumour weight (g): 16% | (a) Parent: Tumour weight (g): 35% | (a) G/F exchange: Tumour weight (g): 11% | (b) Dau: Liver weight (g): 72% | (b) Parent: Liver weight (g): 101% | (b) G/F exchange: Liver weight (g): 90% | (c) Dau: Prol ...

## COc1cccc2c1C(=O)c1c(O)c3c(c(O)c1C2=O)C[C@@](O)(C(C)=O)C[C@@H]3O[C@H]1C[C@H](N)[C@H](O)[C@H](C)O1 [Dau, daunomycin]
[1]
  Cardiotoxicity, HUVEC: +++
mice; healthy mice
  dose with remarkable toxicity: > 2 mg/kg
mice; immunodeficient mice
  dose with remarkable toxicity: > 1 mg/kg
HT-29 tumor; conjugates 10 mg/kg Dau content i.p. days 13, 16, 20, 23, 27, end day 30, Dau 1 mg/kg days 13 and 20, sacrificed day 23
  tumor weight reduction compared to the control group: 84%
HT-29 tumor; same experiment as E56
  decrease in liver weight vs controls: 28%
